Laboratory results published in PubChem BioAssay AID248 (DTP/NCI, 2004).
Values joined by “and” are separate entries in the source; they are usually repeats but may differ in a detail not shown here. Equal values may be shown once. Toxic doses and inconclusive results are not listed. Rule as the data show it: active = T/C of 150% or more; inactive = T/C below 125%.

Tested on: L1210 leukemia ip in BDF1 mice, survival T/C
Test: NCI In Vivo Anticancer Drug Screen. Data for tumor model L1210 Leukemia (intraperitoneal) in B6D2F1 (BDF1) mice
Settings: endpoint: mean survival time, higher = longer survival
How it was run: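 Value reflects the ratio of survival in compound-treated mice to survival in vehicle-treated controls, with both groups carrying the same transplanted tumor.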

[1] = dose: 25.0 mg/kg/injection, schedule: Q04DX002 (ip), vehicle: saline
[2] = dose: 50.0 mg/kg/injection, schedule: Q04DX002 (ip), vehicle: saline
[3] = dose: 100.0 mg/kg/injection, schedule: Q04DX003 (ip), vehicle: saline with Tween-80
[4] = dose: 200.0 mg/kg/injection, schedule: Q04DX003 (ip), vehicle: saline with Tween-80
[5] = dose: 400.0 mg/kg/injection, schedule: Q04DX003 (ip), vehicle: saline with Tween-80
[6] = dose: 25.0 mg/kg/injection, schedule: Q01DX009 (ip), vehicle: Klucel (hydroxypropylcellulose) (HPC)
[7] = dose: 100.0 mg/kg/injection, schedule: Q01DX009 (ip), vehicle: Klucel (hydroxypropylcellulose) (HPC)
[8] = dose: 100.0 mg/kg/injection, schedule: Q01DX009 (ip), vehicle: saline
[9] = dose: 200.0 mg/kg/injection, schedule: Q01DX009 (ip), vehicle: saline
[10] = dose: 100.0 mg/kg/injection, schedule: Q01DX001 (ip), vehicle: Klucel (hydroxypropylcellulose) (HPC)
[11] = dose: 100.0 mg/kg/injection, schedule: Q04DX003 (ip), vehicle: Klucel (hydroxypropylcellulose) (HPC)
[12] = dose: 200.0 mg/kg/injection, schedule: Q04DX003 (ip), vehicle: Klucel (hydroxypropylcellulose) (HPC)
[13] = dose: 400.0 mg/kg/injection, schedule: Q04DX003 (ip), vehicle: Klucel (hydroxypropylcellulose) (HPC)
[14] = dose: 200.0 mg/kg/injection, schedule: Q01DX001 (ip), vehicle: Klucel (hydroxypropylcellulose) (HPC)
[15] = dose: 400.0 mg/kg/injection, schedule: Q01DX001 (ip), vehicle: Klucel (hydroxypropylcellulose) (HPC)
[16] = dose: 100.0 mg/kg/injection, schedule: Q01DX009 (ip), vehicle: saline with Tween-80
[17] = dose: 200.0 mg/kg/injection, schedule: Q01DX009 (ip), vehicle: saline with Tween-80
[18] = dose: 400.0 mg/kg/injection, schedule: Q01DX009 (ip), vehicle: saline with Tween-80
[19] = dose: 200.0 mg/kg/injection, schedule: Q01DX009 (ip), vehicle: Klucel (hydroxypropylcellulose) (HPC)
[20] = dose: 100.0 mg/kg/injection, schedule: Q01DX001 (ip), vehicle: carboxymethylcellulose (CMC)
[21] = dose: 200.0 mg/kg/injection, schedule: Q01DX001 (ip), vehicle: carboxymethylcellulose (CMC)
[22] = dose: 400.0 mg/kg/injection, schedule: Q01DX001 (ip), vehicle: carboxymethylcellulose (CMC)
[23] = dose: 400.0 mg/kg/injection, schedule: Q01DX009 (ip), vehicle: Klucel (hydroxypropylcellulose) (HPC)
[24] = dose: 100.0 mg/kg/injection, schedule: Q01DX001 (ip), vehicle: saline
[25] = dose: 200.0 mg/kg/injection, schedule: Q01DX001 (ip), vehicle: saline
[26] = dose: 400.0 mg/kg/injection, schedule: Q01DX001 (ip), vehicle: saline

Measured: T/C

COc1cc(C)c(C=O)cc1OC
inactive: dose: 5.0 mg/kg/injection, schedule: Q01DX001 (ip), vehicle: saline 103 % of control | dose: 10.0 mg/kg/injection, schedule: Q01DX001 (ip), vehicle: saline 107 % of control | dose: 20.0 mg/kg/injection, schedule: Q01DX001 (ip), vehicle: saline 97 % of control | dose: 40.0 mg/kg/injection, schedule: Q01DX001 (ip), vehicle: saline 101 % of control | dose: 80.0 mg/kg/injection, schedule: Q01DX001 (ip), vehicle: saline 109 % of control

Cc1c(C(=O)N(C)C)no[n+]1[O-]
inactive: [1] 102 % of control | [2] 106 % of control | dose: 100.0 mg/kg/injection, schedule: Q04DX002 (ip), vehicle: saline 98 % of control

COCCNC(=O)NS(=O)(=O)c1ccc(C)cc1
inactive: [3] 98 % of control | [4] 98 % of control | [5] 96 % of control

CC(=O)C(C(=N)C#N)C(=O)Nc1ccccc1 (centres undefined)
inactive: [3] 101 % of control | [4] 104 % of control | [5] 101 % of control

CC(=O)OC12C(=O)OC(=O)C1(C)C1c3ccccc3C2c2ccccc21 (centres undefined)
inactive: [6] 111 % of control | dose: 50.0 mg/kg/injection, schedule: Q01DX009 (ip), vehicle: Klucel (hydroxypropylcellulose) (HPC) 106 % of control | [7] 98 % of control

Cc1c(CCO)c(=O)n2n1CCCC2
inactive: dose: 75.0 mg/kg/injection, schedule: Q01DX001 (ip), vehicle: other 108 % of control | dose: 150.0 mg/kg/injection, schedule: Q01DX001 (ip), vehicle: other 100 % of control

CCN(CC)CCOC(=O)c1ccco1
inactive: dose: 50.0 mg/kg/injection, schedule: Q01DX009 (ip), vehicle: saline 96 % of control | [8] 103 % of control | [9] 100 % of control

Cc1cc(NC(=O)NCCCl)c2c(c1C)CCCC2
inactive: dose: 20.0 mg/kg/injection, schedule: Q01DX001 (ip), vehicle: Klucel (hydroxypropylcellulose) (HPC) 100 % of control | dose: 40.0 mg/kg/injection, schedule: Q01DX001 (ip), vehicle: Klucel (hydroxypropylcellulose) (HPC) 96 % of control | [10] 90 % of control

S=C([S][Sn]([c]1ccccc1)([c]1ccccc1)[c]1ccccc1)N1CCCCC1
inactive: [11] 100 % of control | [12] 94 % of control | [13] 94 % of control

[N-]=[N+]=C1c2ccccc2-c2ccccc21
inactive: [10] 94 % of control | [11] 104 % of control | [14] 93 % of control | [12] 90 % of control | [15] 91 % of control | [13] 101 % of control

O=C(COc1ccc(Cl)c(Cl)c1)NCc1ccc([N+](=O)[O-])cc1
inactive: [11] 90 % of control | [12] 92 % of control | [13] 88 % of control

CC(C)=CCCC(=O)Oc1ccccc1C(=O)O
inactive: dose: 100.0 mg/kg/injection, schedule: Q04DX003 (ip), vehicle: saline 99 % of control | dose: 200.0 mg/kg/injection, schedule: Q04DX003 (ip), vehicle: saline 91 % of control | dose: 400.0 mg/kg/injection, schedule: Q04DX003 (ip), vehicle: saline 93 % of control

COC1C(O)C(O)C(O)C(O)C1OS(=O)(=O)c1ccc(C)cc1 (centres undefined)
inactive: dose: 375.0 mg/kg/injection, schedule: Q01DX001 (ip), vehicle: carboxymethylcellulose (CMC) 105 % of control | dose: 750.0 mg/kg/injection, schedule: Q01DX001 (ip), vehicle: carboxymethylcellulose (CMC) 107 % of control | dose: 1500.0 mg/kg/injection, schedule: Q01DX001 (ip), vehicle: carboxymethylcellulose (CMC) 98 % of control

CC1CCN(C(=O)Nc2cccc(C(F)(F)F)c2)CC1
inactive: [16] 94 % of control | [17] 97 % of control | [18] 91 % of control

COc1ccc2c(c1)C(=O)CCN2
inactive: [7] 100 % of control | [11] 102 % of control | [19] 95 % of control | [12] 104 % of control | [13] 93 % of control

CC/C(=C(\CC)c1ccc(OCCOS(C)(=O)=O)cc1)c1ccc(OCCOS(C)(=O)=O)cc1
inactive: dose: 12.5 mg/kg/injection, schedule: Q04DX002 (ip), vehicle: saline 97 % of control | [1] 101 % of control | [2] 94 % of control

CCCCCCCCCCCCOC(C(=O)O)(c1ccccc1)c1ccccc1
inactive: dose: 25.0 mg/kg/injection, schedule: Q04DX003 (ip), vehicle: saline with Tween-80 100 % of control | dose: 50.0 mg/kg/injection, schedule: Q04DX003 (ip), vehicle: saline with Tween-80 91 % of control | [3] 98 % of control and 89 % of control

CON(C)c1nc(Cl)nc(N(C)OC)n1
inactive: [20] 96 % of control | [7] 97 % of control | [21] 94 % of control | [19] 105 % of control | [22] 107 % of control | [23] 105 % of control

CC(=O)N1Cc2c(N)nc(N)nc2C1C (centres undefined)
inactive: [20] 101 % of control | [21] 95 % of control | [22] 104 % of control

CC1(c2ccsc2)NC(=O)NC1=O (centres undefined)
inactive: [24] 93 % of control | [25] 93 % of control | [26] 90 % of control

CN1c2ccccc2C(C)(C)C12C=Cc1cc([N+](=O)[O-])cc([N+](=O)[O-])c1O2 (centres undefined)
inactive: [10] 105 % of control | [14] 105 % of control | [15] 97 % of control

O=C(Nc1ccccc1F)N(CCO)C1CCCCC1
inactive: [7] 101 % of control | [19] 106 % of control | [23] 101 % of control

C=C(C)COc1c(C)c(C)c(OCC(C)C)c(C)c1C
inactive: dose: 50.0 mg/kg/injection, schedule: Q04DX003 (ip), vehicle: Klucel (hydroxypropylcellulose) (HPC) 96 % of control | [11] 93 % of control | [12] 93 % of control

CCCCCC[C@@H](O)C/C=C\CCCCCCCC(=O)OC
inactive: [24] 97 % of control | [25] 97 % of control | [26] 103 % of control

COc1ccc2c(c1OC)C1(CCN(C)C)CC(=O)CCC1C=C2 (centres undefined)
inactive: dose: 3.12 mg/kg/injection, schedule: Q01DX009 (ip), vehicle: Klucel (hydroxypropylcellulose) (HPC) 103 % of control | dose: 6.25 mg/kg/injection, schedule: Q01DX009 (ip), vehicle: Klucel (hydroxypropylcellulose) (HPC) 95 % of control | dose: 12.5 mg/kg/injection, schedule: Q01DX009 (ip), vehicle: Klucel (hydroxypropylcellulose) (HPC) 98 % of control | [6] 86 % of control | [11] 98 % of control

Clc1c(Cl)c(/C=N/Nc2ccccc2)c(Cl)c(Cl)c1/C=N\Nc1ccccc1
inactive: dose: 50.0 mg/kg/injection, schedule: Q01DX001 (ip), vehicle: saline 101 % of control | [24] 95 % of control | [8] 98 % of control | [25] 92 % of control | [9] 96 % of control | [26] 95 % of control | dose: 400.0 mg/kg/injection, schedule: Q01DX009 (ip), vehicle: saline 96 % of control

O=C(Nc1ccccc1-c1ccc([N+](=O)[O-])cc1)c1cccc2ccccc12
inactive: [4] 87 % of control | [5] 90 % of control

O=[As](O)(c1cccc(Cl)c1)c1cccc(Cl)c1
inactive: dose: 75.0 mg/kg/injection, schedule: Q01DX001 (ip), vehicle: saline 105 % of control

S=c1oc2cccc3c2n1CCC3
inactive: [16] 113 % of control | [3] 97 % of control | [17] 101 % of control | [4] 107 % of control | [18] 98 % of control | [5] 97 % of control

CCOC(=O)CN1C(C)C1C(C)C (centres undefined)
inactive: [11] 114 % of control | [12] 100 % of control | [13] 104 % of control

COC(=O)CCNc1ccccc1C(=O)OC
inactive: dose: 50.0 mg/kg/injection, schedule: Q01DX001 (ip), vehicle: carboxymethylcellulose (CMC) 100 % of control | [20] 107 % of control | [21] 113 % of control | [22] 100 % of control
